Measurements taken from publication PMC4753678 (Journal of medicinal chemistry, 2016).

Columns and labels:
[1] = biological target: T1, full-length human dCTPase protein (Homo sapiens, UniProt Q9H773); assay: HTS-adapted Malachite Green assay of dCTPase inhibition; assay type: biochemical; conditions: for decrease in potency: compared with compound 6
T1 sequence (Q9H773 1-170): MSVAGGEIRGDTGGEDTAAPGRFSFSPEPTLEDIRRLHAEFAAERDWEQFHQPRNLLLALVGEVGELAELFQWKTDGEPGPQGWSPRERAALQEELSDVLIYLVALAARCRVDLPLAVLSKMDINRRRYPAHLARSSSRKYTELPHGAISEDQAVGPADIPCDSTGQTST

[2] = mouse liver microsome stability; conditions: mouse liver microsomes
NTPases/NUDIX hydrolases = assay: selectivity panel of related NTPases/NUDIX hydrolases; assay type: biochemical
purified dCTPase enzyme = biological target: T2, purified dCTPase enzyme (Homo sapiens, UniProt Q9H773); assay: differential scanning fluorimetry assay; assay type: binding
T2 sequence (Q9H773 1-170): T1 sequence (Q9H773 1-170)

[3] = human liver microsome stability; conditions: human liver microsomes
[4] = tested on: base excision repair enzymes; assay: selectivity against base excision repair enzymes; assay type: biochemical
kinases = assay: selectivity against kinases; assay type: biochemical
intracellular dCTPase = biological target: T3, intracellular dCTPase (Homo sapiens, UniProt Q9H773); assay: cellular thermal shift assay in HL60 cells; assay type: cell-based; conditions: 2 h incubation, heated at 67 °C
T3 sequence (Q9H773 1-170): T1 sequence (Q9H773 1-170)

DNA = DNA intercalation
dCTPase = biological target: T4, dCTPase (Homo sapiens, UniProt Q9H773); assay: jump dilution assay; assay type: biochemical; conditions: 10% of the IC50 concentration
T4 sequence (Q9H773 1-170): T1 sequence (Q9H773 1-170)

[5] = glutathione conjugation with metabolic activation in HLM; assay type: in vitro ADME, human; conditions: in the presence of metabolic activation system (in HLM)
[6] = stability of a solution at room temperature under normal light; assay type: physicochemical; conditions: normal light conditions, five months
[7] = tested on: p-Chk1, γ-H2AX, 53BP1, cleaved caspase 3; assay: DNA replication stress and apoptosis markers; assay type: cell-based; conditions: at the concentrations and time points tested
HL60 cells = assay: combination with cytidine analogues, cell death by flow cytometry; assay type: cell-based; conditions: 72 h, compound 18 2.5 μM, increasing concentrations of cytidine analogues
plasma protein binding = assay type: in vitro ADME

COc1ccc(Cn2cnc3ccccc32)cc1 [Compound 7, 1-(4-Methoxybenzyl)-1H-benzo[d]imidazole]
inhibition of dCTPase (in words) [1]: no inhibiton of dCTPase

COc1ccc(Cn2cnc3cc(C)c(C)cc32)cc1 [Compound 8, 1-(4-Methoxybenzyl)-5,6-dimethyl-1H-benzo[d]imidazole]
inhibition of dCTPase (in words) [1]: no inhibiton of dCTPase

COc1ccc(Cn2c(C)nc3ccccc32)cc1 [Compound 9, 1-(4-Methoxybenzyl)-2-methyl-1H-benzo[d]imidazole]
inhibition of dCTPase (in words) [1]: no inhibition of dCTPase

COc1ccc(Cn2c(C)nc3cc(C)c(C)cc32)cc1 [Compound 10, 1-(4-Methoxybenzyl)-2,5,6-trimethyl-1H-benzo[d]imidazole]
decrease in potency [1]: 400 fold

COc1ccc(Cn2c(C)nc3c([N+](=O)[O-])cccc32)cc1 [Compound 12, 1-(4-Methoxybenzyl)-2-methyl-4-nitro-1H-benzo[d]imidazole]
decrease in potency [1]: approximately 25 fold

COc1ccc(Cn2c(C)nc3c([N+](=O)[O-])c(Cl)c(Cl)cc32)cc1 [Compound 14, 5,6-Dichloro-1-(4-methoxybenzyl)-2-methyl-4-nitro-1H-benzo-[d]imidazole]
E MLM (extraction ratio) [2]: 0.88 | selectivity across related NTPases/NUDIX hydrolases (NTPases/NUDIX hydrolases): excellent selectivity | stabilization of the purified dCTPase enzyme (purified dCTPase enzyme): concentration-dependent stabilization | E HLM (extraction ratio) [3]: 0.59 | selectivity over base excision repair enzymes [4]: excellent selectivity | selectivity over kinases (kinases): excellent selectivity | intracellular dCTPase stabilization / target engagement (intracellular dCTPase): did not stabilize dCTPase | DNA intercalation (DNA): did not intercalate DNA

Cc1nc2c([N+](=O)[O-])c(Cl)c(Cl)cc2n1Cc1ccc(B(O)O)cc1 [Compound 18, (4-((5,6-Dichloro-2-methyl-4-nitro-1H-benzo[d]imidazol-1-yl)-methyl)phenyl)boronic Acid]
reversibility of dCTPase inhibition (dCTPase): reversible off-rate | E MLM (extraction ratio) [2]: 0.24 | selectivity across related NTPases/NUDIX hydrolases (NTPases/NUDIX hydrolases): excellent selectivity | stabilization of the purified dCTPase enzyme (purified dCTPase enzyme): concentration-dependent stabilization | conjugation with glutathione (GSH) [5]: did not conjugate | E HLM (extraction ratio) [3]: 0.38 | selectivity over base excision repair enzymes [4]: excellent selectivity | selectivity over kinases (kinases): excellent selectivity | degradation of a solution [6]: no signs of degradation | DNA replication stress (p-Chk1, γ-H2AX, 53BP1) and cleaved caspase 3 [7]: did not increase DNA replication stress | intracellular dCTPase stabilization / target engagement (intracellular dCTPase): strong intracellular target engagement | DNA intercalation (DNA): did not intercalate DNA | cell death in combination with cytidine analogues (HL60 cells): concentration-dependent increase in cell death

Cc1n[nH]c(C)c1CCn1c(C)nc2c([N+](=O)[O-])c(Cl)c(Cl)cc21 [Compound 25, 5,6-Dichloro-1-(2-(3,5-dimethyl-1H-pyrazol-4-yl)ethyl)-2-methyl-4-nitro-1H-benzo[d]imidazole]
E MLM (extraction ratio) [2]: 0.89 | E HLM (extraction ratio) [3]: 0.83

Cc1nc2c([N+](=O)[O-])c(Cl)c(Cl)cc2n1Cc1ccc(-n2cccn2)cc1 [Compound 27, 1-(4-(1H-Pyrazol-1-yl)benzyl)-5,6-dichloro-2-methyl-4-nitro-1H-benzo[d]imidazole]
E MLM (extraction ratio) [2]: 0.73 | E HLM (extraction ratio) [3]: 0.61

Cc1nc2c([N+](=O)[O-])c(Cl)c(Cl)cc2n1Cc1ccc(B2OC(=O)CN(C)CC(=O)O2)cc1 [Compound 30, 2-(4-((5,6-Dichloro-2-methyl-4-nitro-1H-benzo[d]-imidazol-1-yl)methyl)phenyl)-6-methyl-1,3,6,2-dioxazaborocane-4,8-dione]
E MLM (extraction ratio) [2]: 0.36 | conjugation with glutathione (GSH) [5]: did not conjugate | fraction unbound (plasma protein binding): 0.008

O=[N+]([O-])c1c(Cl)c(Cl)cc2c1nc(C1CC1)n2Cc1ccc(B(O)O)cc1 [Compound 36, (4-((5,6-Dichloro-2-cyclopropyl-4-nitro-1H-benzo[d]imidazol-1-yl)methyl)phenyl)boronic Acid]
reversibility of dCTPase inhibition (dCTPase): reversible off-rate | E MLM (extraction ratio) [2]: 0.83 | E HLM (extraction ratio) [3]: 0.14

Cc1nc2cc(Cl)c(Cl)cc2n1Cc1ccc(B(O)O)cc1 [Compound 38, (4-((5,6-Dichloro-2-methyl-1H-benzo[d]imidazol-1-yl)methyl)-phenyl)boronic Acid]
inhibition of dCTPase (in words) [1]: submicromolar activity

Cc1nc2c([N+](=O)[O-])c(F)c(F)cc2n1Cc1ccc(B(O)O)cc1 [Compound 39, (4-((5,6-Difluoro-2-methyl-4-nitro-1H-benzo[d]imidazol-1-yl)-methyl)phenyl)boronic Acid]
inhibition of dCTPase (in words) [1]: submicromolar activity
